Results reported in doi:10.1101/2024.05.19.594723v1 (biorxiv, 2024).
Counter-ions that a name gives are not always drawn. Like-named read-outs stand apart in the source and are kept apart here.

Legend:
Sindbis virus SINV = test: microbe, parasite or virus in culture; details: BHK-21, read-out: SINV replicon assay IC50 (μM)
in vitro [1] = details: monkey, vero cells
Chikungunya virus CHIKV = test: microbe, parasite or virus in culture; details: read-out: Plaque reduction assay IC50 (nM)
in vitro [2] = details: hamster, bhk-21 cells
CHIKV nsP1 [3] = target: T1, CHIKV nsP1 (Chikungunya virus strain S27-African prototype, UniProt Q8JUX6); format: binding
T1 sequence (Q8JUX6 1-535): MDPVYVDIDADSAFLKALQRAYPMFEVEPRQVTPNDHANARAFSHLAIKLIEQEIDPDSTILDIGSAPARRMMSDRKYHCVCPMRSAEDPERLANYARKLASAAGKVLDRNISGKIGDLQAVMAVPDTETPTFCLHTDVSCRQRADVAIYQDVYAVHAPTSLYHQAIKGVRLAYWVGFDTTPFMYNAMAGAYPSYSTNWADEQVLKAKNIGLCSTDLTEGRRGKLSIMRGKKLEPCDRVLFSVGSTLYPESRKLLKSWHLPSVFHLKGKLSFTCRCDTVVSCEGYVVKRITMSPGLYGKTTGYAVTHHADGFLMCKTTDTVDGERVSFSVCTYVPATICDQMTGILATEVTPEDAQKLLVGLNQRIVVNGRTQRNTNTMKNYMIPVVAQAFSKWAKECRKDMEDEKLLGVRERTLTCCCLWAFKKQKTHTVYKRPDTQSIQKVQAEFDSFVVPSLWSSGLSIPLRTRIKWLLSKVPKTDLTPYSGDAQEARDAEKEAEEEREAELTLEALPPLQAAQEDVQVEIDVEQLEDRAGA

CHIKV nsP1 [4] = target: T1, CHIKV nsP1; test: biochemical

SMILES | IC50 (Sindbis virus SINV) [µM] | CC50 at 24 h (in vitro [1]) [µM] | IC50 (Chikungunya virus CHIKV) [nM] | CC50 at 24 h (in vitro [2]) [µM] | Kd (CHIKV nsP1 [3]) [µM] | Kd (CHIKV nsP1 [4]) [µM]
CC1(C)CCC(CN2CCN(c3ccc(C(=O)NS(=O)(=O)c4ccc(NCC5CCOCC5)c([N+](=O)[O-])c4)c(Oc4cnc5[nH]ccc5c4)c3)CC2)=C(c2ccc(Cl)cc2)C1 [ABT199/Venetoclax] | 0.23 ± 0.04 | 5 | 3.46 ± 1.31 | > 2.5 | ~161 | –
COc1cc2c3cc1Oc1c(OC)c(OC)cc4c1[C@@H](Cc1cccc(c1)Oc1ccc(c(O)c1)C[C@@H]3N(C)CC2)N(C)CC4 [Berbamine Hydrochloride] | 1.94 ± 0.97 | > 25 | < 100 | 46 | – | 5.45 ± 0.77
Cc1ccc(C(=O)Nc2ccc(CN3CCN(C)CC3)c(C(F)(F)F)c2)cc1C#Cc1cnc2cccnn12 [Ponatinib] | > 1.25 | 7.95 | < 3.9 | 2.4 | ~3.83 | –
